Experimental data taken from publication PMC8620715, “Biological Activity of Triazolopyrimidine Copper(II) Complexes Modulated by an Auxiliary N-N-Chelating Heterocycle Ligands” (Molecules, 2021).
Where two headings read alike, the source gives them in different places.

Key:
[1] = test system: BJ normal cell line (human fibroblast cells); assay: MTT cell viability assay, BJ normal cells; assay type: cell-based; settings: for IC50 / reduction of BJ cell viability at the highest concentration: BJ
Description: Human fibroblast cells (BJ—ATCC CRL-2522, USA) were grown in minimal essential medium (MEM) supplemented with 2 mM L-Glutamine, 10% fetal calf serum (FCS), 100 units/mL of penicillin, and 100 µg/mL of streptomycin at 37 °C in a humidified incubator under an atmosphere containing 5% CO2. Mouse melanoma cells (B16—ATCC CRL—6475, USA) were grown in DMEM (Dulbecco’s Modified Eagle Medium) supplemented with similar reagents as MEM. All cell cultivation media and reagents were purchased from Biochrom AG (Berlin, Germany) and Sigma-Aldrich (Darmstadt, Germany).
Cell viability was evaluated using 3-(4,5-dimethylthiazol-2-yl)-2,5-diphenyltetrazolium bromide (MTT) assay as described previously. First, the cells were seeded in 96-well plates (20000 cells/well) and cultured for 24 h in medium. […] The negative control was represented by cells cultivated in a medium without the investigated compounds. Following incubation, the medium was changed, and the MTT solution was added to each well to a final concentration of 1 mg/mL and incubated for an additional 4 h, at 37 °C. Finally, the medium was collected, and DMSO was used to dissolve the insoluble formazan product. The absorbance of the samples was recorded at 570 nm using a plate reader Mithras 940 (Berthold). The data were corrected for the background, and the percentage of viable cells was obtained using the equation:Cell viability = [(A570 of treated cells)/(A570 of untreated cells)] × 100%(1)
The half-maximal inhibitory concentration (IC50) was determined by fitting the data with a sigmoidal logistical equation using the software Origin 8.1 (Microcal Inc., Los Angeles, CA, USA).

[2] = test system: B16 cells; assay: Lactate dehydrogenase (LDH) release assay, B16 cells; assay type: cell-based, mouse
Description: Membrane integrity after peptide treatment was assessed based on LDH release using a CytoTox 96 Non-Radioactive Cytotoxicity Assay (Promega), as previously described. […] Maximal LDH release was obtained by complete cell lysis induced by using 1% of Triton X-100. The absorption resulting from LDH activity was measured in a microplate reader Mithras 940 (Berthold) at 490 nm, and the % LDH was calculated as: [(corrected absorbance of the LDH released in treated cells)/(corrected absorbance of the total LDH released)] * 100%.

[3] = test system: E. coli 25922; assay: Biofilm formation on polystyrene (crystal violet), MBEC; assay type: cell-based, Escherichia coli; settings: E. coli 25922, biofilm
Description: (§1) The antibacterial assays were carried out using two Gram-negative (Escherichia coli ATCC 25922, Pseudomonas aeruginosa ATCC 27853) and two Gram-positive (Staphylococcus aureus ATCC 25923, MRSA (meticillin-Resistant S. aureus) 388 (ATCC, American Type Culture Collection) bacteria.
(§2) The method for assessment of biofilm formation on polystyrene microtiter plates was based on previously published protocols. The absorbance at 490 nm was measured with an Apollo LB 911ELISA (Berthold Technologies GmbH & Co. KG, Waltham, MA, USA) reader. The minimal biofilm-eradication concentration (MBEC) was defined as the lowest concentration of antibiotics required to eradicate the biofilm. All experiments were performed in triplicate.

[4] = test system: P. aeruginosa 27853; assay: as above; assay type: cell-based, Pseudomonas aeruginosa; settings: P. aeruginosa 27853, biofilm
Description: as §1, §2

[5] = test system: MRSA 388; assay: as above; assay type: cell-based, Staphylococcus aureus; settings: MRSA 388, biofilm
Description: as §1, §2

[6] = test system: S. aureus 25923; assay: as above; assay type: cell-based, Staphylococcus aureus; settings: S. aureus 25923, biofilm
Description: as §1, §2

[7] = test system: B16 cells; assay: Cell morphology by fluorescence microscopy (phalloidin staining), B16 cells; assay type: cell-based, mouse; settings: 24 h
Description: The morphological changes induced by the treatment of the BJ and B16 cell lines with the tested compounds at two different concentrations (2.5 and 10 µg/mL) applied for 24 h were investigated by fluorescence microscopy.
According to the manufacturer protocol, the cytoskeleton actin filaments of BJ and B16 cells were stained with phalloidin-FITC (Sigma-Aldrich, St. Louis, MO, USA). Briefly, cells were washed with PBS (5 min, 3 times), fixed for 5 min with 3% paraformaldehyde, washed three times with PBS, permeabilized with 0.1% Triton X-100 in PBS for 15 min, washed three times with PBS, stained with 20 μg/mL phalloidin-FITC at room temperature for 1 h and rewashed three times with PBS. The cell nucleus was stained with 8 μM of Hoechst 33342 solution for 10 min, washed three times with PBS, and finally, mounted and sealed on glass slides with FluorSave™ Reagent (Merck Millipore, Germany). The fluorescence images were acquired using an Andor DSD2 Confocal Unit (Andor, Ireland), mounted on an epifluorescence microscope, Olympus BX-51 (Olympus, Germany), equipped with a 40x and 100x objective and an appropriate DAPI/Hoechst filter cube (excitation filter 390/40 […], dichroic mirror 405 nm and emission filter 452/45 nm) and GFP/FITC filter cube (excitation filter 466/40 nm, dichroic mirror 488 nm and emission filter 525/54 nm).

[8] = test system: λ-DNA/EB adduct; assay: Quenching of fluorescence of λ-DNA/ethidium bromide adduct; assay type: binding, bacteriophage lambda; settings: λ-DNA pre-treated with EB, pH 8
Description: The binding of complexes (1) and (2) to DNA was assayed by monitoring the quenching of fluorescence emitted by λ-DNA/ethidium bromide (EB) adduct (λexcit = 510 nm, maximum emission at λem = 601 nm) in the presence of different concentrations of the tested compounds [68, 69]. The fluorescence spectra were recorded in the range of 550–750 nm using a Thermo Fischer Scientific Varioskan Flash spectral scanning multimode reader (Vantaa, Finland). The spectra were recorded in suitable plates using 5 nm excitation and emission slits for all measurements.
The binding of compounds to λ-DNA was assayed by monitoring the quenching of fluorescence emitted by λ-DNA/ethidium bromide (EB) adduct (λexcit = 510, maximum emission at λem = 601). The λ-DNA solution was added to the EB solution, prepared in the same buffer, then increasing concentrations of compounds were added to EB-DNA [52, 70]. The fluorescence spectra were recorded in the range of 550–750 nm using a Thermo Fischer Scientific Varioskan Flash spectral scanning multimode reader (Vantaa, Finland). The spectra were recorded in suitable plates using 5 nm excitation and emission slits for all measurements.

[9] = 2.5 µg/mL (2.84 μM and 2.76 μM for the complexes)

Row | SMILES | effect on viability of BJ cells ([1]; range of tested concentrations, 24 h and 48 h) | membrane integrity (LDH release) ([2]; B16, 24 h and 48 h) | MBEC [3] [mM] | MBEC [4] [mM] | MBEC [5] [mM] | MBEC [6] [mM] | morphological changes of B16 cells [7, 9] | fluorescence of λ-DNA/EB adduct on adding complex [8] | IC50 ([1]; 24 h) [µg/mL] | reduction of BJ cell viability at the highest concentration ([1]; 24 h) | IC50 ([1]; 24 h, read-out: IC50) [µM] | IC50 ([1]; 48 h) [µg/mL] | reduction of BJ cell viability at the highest concentration ([1]; 48 h) | IC50 ([1]; 48 h, read-out: IC50) [µM] | LDH release ([2]; B16, 24 h) [%] | LDH release ([2]; B16, 48 h) [%] | morphological changes of B16 cells ([7]; 10 μg/mL (11.05 µM))
1 | Cc1cc(C)n2ncnc2n1.Cc1cc(C)n2ncnc2n1.Cc1cc(C)n2ncnc2n1.O.[Cu+2].[O-][Cl+3]([O-])([O-])[O-].[O-][Cl+3]([O-])([O-])[O-].c1ccc(-c2ccccn2)nc1 [Complex (1), [Cu(bpy)(dmtp)2(OH2)](ClO4)2·dmtp] | not affected | did not affect the membrane integrity | 0.71 | 0.71 | 0.35 | 0.18 | not altered | fluorescence intensity decreased | – | – | – | – | – | – | – | – | –
2 | Cc1cc(C)n2ncnc2n1.Cc1cc(C)n2ncnc2n1.Cc1cc(C)n2ncnc2n1.O.[Cu+2].[O-][Cl+3]([O-])([O-])[O-].[O-][Cl+3]([O-])([O-])[O-].c1cnc2c(c1)ccc1cccnc12 [Complex (2), [Cu(phen)(dmtp)2(OH2)](ClO4)2·dmtp] | – | – | 0.17 | 0.69 | 0.04 | 0.04 | not altered | fluorescence intensity decreased | 13.61 | up to 45% | 15 | 4.50 | up to 10% | 4.97 | 60 | 100 | significant changes
